Experiment: Orlistat transfer into oil in vitro
Format: physicochemical
Settings: after 10 min
Procedure: Orlistat (4 mg) suspensions stabilized by sucroseesters (2 mg) were transferred into 5 ml of a 10% oil in water emulsion (pH value 4.5; oil components: olive oil and cream respectively). The dispersion underwent end-over end mixing for a desired period of time. The oil phase was separated by cold centrifugation and the orlistat content in the oil phase was determined by HPLC. For comparison, an adequate experiment was also performed with a suspension of XENICAL® brand of orlistat-containing pharmaceutical composition. L-1695, P-1670, S-1670, O-1570 are commercial sucroseesters (Sucroselaurate, Sucrosepalmitate, Sucrosestearate, Sucroseoleate respectively) from Mitsubishi-Kagaku Foods, Japan.

Question: Which “transfer into olive oil, times more efficient than transfer into cream” value does the source give for `CCCCCCCCCCC[C@@H](C[C@@H]1OC(=O)[C@H]1CCCCCC)OC(=O)[C@H](CC(C)C)NC=O` [orlistat] here?
Answer: The value was 7.
